The values that follow come from patent publication US7759101B2, “Ginsenoside glycosidases hydrolyzing ginsenoside sugar moieties and uses thereof” (priority 2000, dated 2010).

For experiment [1], the system named is ginsenoside glycosidases from Tremella. In words: Hydrolysis of Rb1 with ginsenoside glycosidases from Tremella. The format is biochemical, Tremella sp. FFCCDL-12 g. Particulars: 1% Rb1 in acetate buffer containing 20% ethanol, 40° C., 20 hours. On the procedure: Tremella sp. FFCCDL-12 g (available from Food Fermentation Culture Collection of Dalian Institute of Light Industry) was cultured on a solid medium containing 125 g of ginseng powder, 374 g of wheat bran and 500 ml of water for 5 to 7 days. Then 2500 ml of 0.01 M acetate buffer pH 5.0 was added to the solid medium to stand for 2 hours. Insolubles were removed by centrifugation and approximately 2000 ml liquid was obtained. (NH4)2SO4 powder was added to the liquid with stirring to 70% saturation. The solution was stored at 4° C. overnight and centrifuged to collect the pellets. The pellets were resuspended and the suspension was dialyzed against 0.01M acetate buffer pH 5. Then the solution was diluted in 0.01 M acetate buffer to a volume of 150 ml. Impurities were removed by centrifugation, and crude enzyme solution was obtained.
10 ml of the enzyme solution was allowed to react with 10 ml of 1% Rb1 in acetate buffer containing 20% ethanol at 40° C. for 20 hours. […] The optimal reaction temperature for the enzymes is 50° C. and the optimal pH is pH 5.5.

Experiment [2] deals with Enzymes from Animal Liver. The experiment can be described thus: Hydrolysis of Rb1 with enzymes from animal liver. The format is biochemical, bovine. The note with it: 1% Rb1 solution, pH 5, 20% ethanol, 40° C., 20 hours. On the procedure: 100 g of bovine liver was minced and added to 300 ml of 0.01 M acetate buffer pH 5 for extraction under room temperature for two hours. The mixture was centrifuged and (NH4)2SO4 was added to the supernatant to 70% saturation to precipitate the enzymes. The mixture was stored at 4° C. overnight. Precipitates were collected by centrifugation and dialyzed against 0.01 M acetate buffer pH 5. Impurities were removed and 15 ml of enzyme solution was obtained. 10 ml of the enzyme solution was allowed to react with 10 ml of 1% Rb1 solution (in 0.01 M acetate buffer pH 5 containing 20% ethanol) at 40° C. for 20 hours.

The test system of the next experiment is Enzymes from Malts. The experiment can be described thus: Hydrolysis of Rb1 with enzymes from malts. In kind it is biochemical, malt. Particulars: 1% Rb1 solution, pH 5, 20% ethanol, 40° C., 20 hours. On the procedure: 200 g of malt was ground and added to 1000 ml of 0.01 M acetate buffer pH 5 for extraction under room temperature for two hours. The mixture was filtrated. To the supernatant 3 volumes of ethanol was added and stand overnight. Precipitates were collected to which 50 ml of 0.01 M acetate buffer pH 5 was added. Insolubles were removed and enzyme solution was obtained. 10 ml of the enzyme solution was allowed to react with 10 ml of 1% Rb1 solution (in 0.01 M acetate buffer pH 5 containing 20% ethanol) at 40° C. for 20 hours. The product was detected by TLC. As a result, more than 95% Rb1 was converted to Rd, F2, C-K and Rg3 and the like.

For experiment [3], the system named is bacterial ginsenoside glycosidases. In words: Hydrolysis of Rd with ginsenoside glycosidases from bacteria. The note with it: 0.5% Rd in acetate buffer containing 20% ethanol, 70° C., 16 hours. The format is biochemical, Bacillus sp. JF. As for the experimental part: Thermophilic and aerobic Bacillus sp. JF (Fengxie Jin et al., J. Gen. Appl. Microbiol., 36, 415-434, 1990) was cultured with aeration and stirring in a medium containing 0.5% by weight of ginseng extracts, 1% by weight of wheat bran extracts and 0.3% tryptone with a pH of 7.2 at 60° C. for 36 hours. Cells were removed by centrifugation and 3000 ml of 95% ethanol was added to 1000 ml of the cell-free supernatant. The solution was allowed to stand at 4° C. overnight and then centrifuged to collect the pellets. The enzyme protein pellets were dissolved in 50 ml of 0.01M acetate buffer pH 5. Insoluble materials were removed by centrifugation and a crude enzyme solution was obtained.
10 ml of the enzyme solution was allowed to react with 10 ml of 0.5% Rd in acetate buffer containing 20% ethanol at 70° C. for 16 hours. […] The enzymes can also hydrolyze β-(1→2)-glucoside of Rg3 to give Rh2.

Experiment [4] deals with Ginsenoside Glycosidases from Yeast. The experiment can be described thus: Hydrolysis of Rd with ginsenoside glycosidases from yeast. In kind it is biochemical, Candida sp. FFCCDL-2 g. The note with it: 0.5% Rd in acetate buffer, 60° C., 12 hours. On the procedure:
Candida sp. FFCCDL-2 g (available from Food Fermentation Culture Collection of Dalian Institute of Light Industry) was cultured with shaking at 30° C. for 56 hours in a medium containing 2% by weight of ginseng extracts and 8% by weight of malt extracts. Cells were removed by centrifugation, after which (NH4)2SO4 powder was added to 500 ml of the cell-free supernatant to 65% saturation. The solution was dialyzed against 0.01M acetate buffer pH 5. Insolubles were removed by centrifugation, and 25 ml of crude enzyme solution was obtained.
10 ml of the enzyme solution was allowed to react with 10 ml of 0.5% Rd in acetate buffer at 60° C. for 12 hours. […] The enzymes can also hydrolyze β-(1→2)-glucoside of Rg3 to give Rh2.

Experiment [5] deals with ginsenoside glycosidase III from ginseng plant. In words: Hydrolysis of Rd with fraction 37 (ginsenoside glycosidase III) from ginseng plant. The note with it: Fraction 37; substrate 0.5%; 50° C., pH 5.0, 18 hours. In kind it is biochemical. As for the experimental part:
200 g of fresh ginseng root was cut into pieces and added to 600 ml of 0.02 M acetate buffer pH 5. Supernatant was obtained by filtration after the mixture stand at 40° C. for 2 hours. To the supernatant (NH4)2SO4 was added gradually until 70% saturation and the mixture stand overnight at 4° C. Then protein pellets were collected by centrifugation and redissolved in 15 ml of distilled water. The solution was dialyzed against 0.02 M Tris-HCl pH 7.4. Insolubles were removed by centrifugation and the volume of the supernatant was adjusted to 20 ml.
5 ml of the enzyme solution was subjected to a DEAE-Cellulose DE-25 column (Whatman, 1.4×6.7 cm). The column was eluted with a KCl gradient (0.06, 0.12, 0.18 and 0.24 M) in 0.02 M Tris-HCl pH 7.4. After elution, each fraction was tested for the activity of hydrolyzing ginsenosides. […] Fraction 52 can also hydrolyze the glucosidic bond at the twentieth carbon atom of Rb and Rc to give ginsenoside F2.

As for `CC(C)=CCC[C@](C)(O[C@@H]1O[C@H](CO[C@@H]2O[C@H](CO)[C@@H](O)[C@H](O)[C@H]2O)[C@@H](O)[C@H](O)[C@H]1O)[C@H]1CC[C@]2(C)[C@@H]1[C@H](O)C[C@@H]1[C@@]3(C)CC[C@H](O[C@@H]4O[C@H](CO)[C@@H](O)[C@H](O)[C@H]4O[C@@H]4O[C@H](CO)[C@@H](O)[C@H](O)[C@H]4O)C(C)(C)[C@@H]3CC[C@]12C` [Rb1, ginsenoside Rb1], in experiment [1], the “C-K in the product mixture” value is recorded as 35%, the “F2 in the product mixture” value was 40% and the “Rd in the product mixture” value turned out to be 25%. The “Rb1 converted to ginsenosides with lower sugar contents” value in experiment [2] amounted to 50%. Besides, the “Rb1 converted to Rd, F2, C-K and Rg3 and the like” value in the experiment on Enzymes from Malts was “more than 95%”.

On to `CC(C)=CCC[C@](C)(O[C@@H]1O[C@H](CO)[C@@H](O)[C@H](O)[C@H]1O)[C@H]1CC[C@]2(C)[C@@H]1[C@H](O)C[C@@H]1[C@@]3(C)CC[C@H](O[C@@H]4O[C@H](CO)[C@@H](O)[C@H](O)[C@H]4O[C@@H]4O[C@H](CO)[C@@H](O)[C@H](O)[C@H]4O)C(C)(C)[C@@H]3CC[C@]12C` [Rd, ginsenoside Rd], for which, in experiment [3], the “Rd converted to ginsenoside F2” value is 60%. In addition, the “Rd converted to ginsenoside F2” value in experiment [4] is given as 73%. Moreover, in experiment [5], the “Percentage of C—K in the reaction product” value worked out at 55% and the “Percentage of Rd in the reaction product” value came to 45%.
